{
  "source": "patent US20260256716A1",
  "about": "“COMPOSITIONS AND METHODS OF USE THEREOF” (Board of Supervisors of Louisiana State University and …, priority 2023, published 2026)",
  "key": {"[1]": {"system": "ARPE cells", "assay": "Blue light induced mitochondrial oxidative stress in ARPE cells (Mitosox)", "type": "cell-based, human", "conditions": "0.001 nM; 24 hours; hyperglycemic conditions; blue light 400 nm 12 seconds", "experimental": "Representative 5-HT2A Receptor Agonist, R-DOI Inhibits Blue Light Induced Mitochondrial-Mediated Oxidative Stress at low sub-nanomolar concentrations thereby reversing adverse processes that are associated with retinal exposure to blue light. ARPE cells grown under hyperglycemic conditions were plated and mock treated or treated with R-DOI at 0.001 nM. 24 hours post treatment, live ARPE cells were labeled with the mitochondrial oxidative stress indicator dye Mitosox that becomes fluorescent red under mitochondria-induced oxidative stress conditions. Once stained, live ARPE cells were exposed to focused blue light at 400 nm for 12 seconds and the ability of drugs to protect against blue light damage-induced mitochondrial oxidative stress induction was assessed. In the absence of 5HT2A agonists, there was a clear increase in red fluorescence upon blue light exposure."}, "[2]": {"system": "mitofusin2 and TOMM20", "assay": "Western blot of mitofusin2 and TOMM20 in ARPE-19 cells", "type": "cell-based, human", "conditions": "all concentrations; 48 h post treatment; DMEM 7% FCS", "text": "Representative 5-HT2A Receptor Agonist, R-DOI, Increases Mitochondrial Biogenesis and Quality by Inducing Mitochondrial Fusion at low nM concentrations thereby reversing adverse processes that underlie development and progression of the Pathophysiology of Age-Associated Ocular and Neurodegenerative Diseases. Consistent with the Maintenance of Functional Mitochondria and Mitochondrial Health, Serotonin 2A Receptor Agonism, Like with R-DOI, Increases Enzymatic BioMarkers of Mitochondrial Fusion (Mitofusin2) and Biogenesis (TOMM20). ARPE-19 cells were grown in DMEM 7% FCS containing the indicated concentrations of R-DOI. 48 h post treatment, cell samples were lysed and normalized prior to running western blots to evaluate mitofusin2 and TOMM20 protein expression. […] Mitofusion2 functions to regulate mitochondrial fusion. TOMM20 imports proteins through the outer membrane and is a marker of biogenesis and number."}, "[3]": {"system": "NRF-2", "assay": "Western blot of NRF-2 expression in ARPE cells after H2O2 oxidative stress", "type": "cell-based, human", "conditions": "1000 nM to 1 nM overnight, then H2O2, 24 hours, lower doses highest", "experimental": "ARPE cells were plated and treated with 10-fold dilutions of R-DOI from 1000 nM to 1 nM. Following an overnight treatment, cells were incubated with hydrogen peroxide (H2O2) to mimic an oxidative stress induced disease event. 24 hours later, cell lysates were collected and protein levels were normalized among samples and run on a western blot for comparison of NRF-2 expression relative to a cellular protein loading control, b-actin. While doses increased protective NRF-2 expression, lower doses increased NRF-2 to the highest levels, accentuating the need for appropriate dose ranges in facilitating treatment effects."}, "[4]": {"system": "ARPE cells", "assay": "Blue light induced mitochondrial fragmentation in ARPE cells (mitotracker green)", "type": "cell-based, human", "conditions": "100 nM; 48 hours; hyperglycemic conditions; blue light 400 nm", "experimental": "ARPE cells grown under hyperglycemic conditions were plated and mock treated or treated with R-DOI or 2C-iBu at 100 nM. 48 hours post treatment, mitochondria in live cells were visualized by staining mitochondria with mitotracker green (green). Once stained, live ARPE cells were exposed to focused blue light at 400 nm and the ability of drugs to protect against blue light damage-induced mitochondrial fragmentation was assessed."}, "[5]": {"system": "NAD synthesis and salvage", "assay": "RT-PCR of NAD synthesis and salvage pathways / NAD levels", "type": "cell-based"}, "[6]": {"system": "phosphorylated myosin light chain", "assay": "Western blot of phosphorylated myosin light chain (MLC) in ARPE-19 cells under hyperglycemic conditions", "type": "cell-based, human", "conditions": "ARPE-19, DMEM High glucose 7% FCS overnight; 10 nM; western blot", "experimental": "A Hallmark of Age-Associated Ocular and Neurodegenerative Disorders is Cytoskeletal Alteration and Induction of CONTRACTILE Stress Fiber Formation. Expression and activation via phosphorylation of Myosin Light Chain (MLC), is a biomarker of disease development. ARPE-19 cells and ARPE-19 cells specifying 5-HT2AR knockouts were plated in nutrient rich media (DMEM; 7% FCS) overnight. Cells were fixed, permeabilized, and stained phalloidin and α-phosphorylated-Myosin light chain. Cytoskeletal elements were then visualized by fluorescent microscopy to visualize actin fiber cytoskeletal structures (phalloidin, red) and contractile phosphorylated myosin light chain (green) via fluorescent microscopy. […] ARPE-19 cells were cultured under hyperglycemic conditions in nutrient rich media (DMEM High glucose; 7% FCS) overnight either in the absence or presence of 5-HT2A receptor agonists R-DOI and 2CiBu at 10 nm or 100 nM concentrations. The relative expression of the activated disease biomarker contractile phosphorylated myosin light chain was determined using specific antibodies and western blot analysis. 5-HT2A agonists. […] Therefore, 5-HT2A agonism at low concentrations have the potential to prevent and reverse deleterious cytoskeletal events that can be induced under hyperglycemic conditions, such as in diabetics.\nThis can be consistent with 2C-iBu being able to regulate IOP and that 5HT2A agonists prevented edema formation and disruption of corneal architecture in a model of herpetic keratitis."}, "[7]": {"system": "AMP kinase", "assay": "AMP kinase activation in treated cells", "type": "cell-based", "conditions": "low nM concentrations"}, "[8]": {"system": "ARPE-19 cells", "assay": "SA-β-Gal cellular senescence in ARPE-19 cells in nutrient rich media (DMEM)", "type": "cell-based, human", "conditions": "10 nM in starvation media overnight, then DMEM 7% FCS 72 hours", "experimental": "ARPE-19 cells in nutrient rich media (DMEM; 7% FCS) were seeded overnight prior to being replaced with starvation media (DMEM; 0.5% FCS) containing 10 nM R-DOI or 10 nM M100,907. After overnight incubation in starvation media with drug, cells were swapped to DMEM 7% FCS media for 72-hours. After the 72-hour incubation, cells were fixed and stained for SA-β-Gal for 6-hours. Cells nuclei were then stained with DAPI for total-cell enumeration. SA-β-Gal positive cells, and total cells per frame, were quantified by microscopy."}, "[9]": {"system": "ARPE-19 cells", "assay": "ATP luciferase assay in ARPE-19 cells", "type": "cell-based, human"}},
  "data": [
    {"smiles": "COc1cc(C[C@@H](C)N)c(OC)cc1I", "note": "(single isomer, unassigned) [R-DOI, R enantiomer 2,5-Dimethoxy-4-iodoamphetamine]", "values": [
      {"measurement": "blue light induced mitochondrial oxidative stress", "setting": "[1]", "value": "abrogated mitochondrial oxidative stress responses"},
      {"measurement": "Mitofusin 2 protein expression", "setting": "[2]", "value": "increased expression of Mitofusin 2"},
      {"measurement": "TOMM20 protein expression (mitochondrial biomass)", "setting": "[2]", "value": "increased mitochondrial biomass (TOMM20)"},
      {"measurement": "NRF-2 expression", "setting": "[3]", "value": "Increases Expression of the master regulator of antioxidant gene expression NRF-2"},
      {"measurement": "NRF-2 expression", "setting": "[3]; listed as (R)-DOI", "value": "Upregulates Expression of NRF-2"},
      {"measurement": "blue light induced mitochondrial fragmentation/damage", "setting": "[4]", "value": "Inhibit Blue Light and Oxidative Stress Induced Mitochondrial Fragmentation/Damage"},
      {"measurement": "NAD levels / NAD synthesis and salvage pathways", "setting": "[5]; higher doses", "value": "causes downregulation of these pathways and decreased NAD levels"},
      {"measurement": "NAD levels / NAD synthesis and salvage pathways", "setting": "[5]; low dose", "value": "increases protective NAD levels"},
      {"measurement": "hyperglycemia induced phosphorylated MLC levels", "setting": "[6]", "value": "suppressed hyperglycemia induced phosphorylated MLC levels"},
      {"measurement": "AMP kinase activation", "setting": "[7]", "value": "activation of AMP kinase"},
      {"measurement": "cellular senescence (SA-β-Gal positive cells)", "setting": "[8]", "value": "Decreases Basal Levels of Cellular Senescence"},
      {"measurement": "ATP levels relative to Mock treated ARPE-19 cells", "setting": "[9]; 10 fold dilutions 100 nM to 0.1 nM", "value": "Increase Mitochondrial Function And ATP Production"},
      {"measurement": "production of ATP", "setting": "[9]; ARPE WT cells, 24 h after administration", "value": "enhanced production of ATP"}
    ]}
  ]
}
